Measured values: PubChem BioAssay AID248 (DTP/NCI, 2004)
Toxic doses and inconclusive results are not listed. No stated cut-off is given here; in the data, active means T/C of 150% or more; inactive means T/C below 125%.

Test system: L1210 leukemia ip in BDF1 mice, survival T/C
Assay: NCI In Vivo Anticancer Drug Screen. Data for tumor model L1210 Leukemia (intraperitoneal) in B6D2F1 (BDF1) mice
Conditions: endpoint: mean survival time, higher = longer survival
Procedure, shortened: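 Each compound was tested against a transplantable tumor grown in mice. The endpoint was survival, with treated animals benchmarked against vehicle controls as a simple ratio.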

Measured: T/C

N/C(=N/N=C/c1ccc(N(CCCl)CCCl)cc1)N[N+](=O)[O-]
inactive: dose: 15.0 mg/kg/injection, schedule: Q01DX Z (ip), vehicle: methylcellulose (MC) 89 % of control | dose: 30.0 mg/kg/injection, schedule: Q01DX Z (ip), vehicle: methylcellulose (MC) 93 % of control | dose: 60.0 mg/kg/injection, schedule: Q01DX Z (ip), vehicle: methylcellulose (MC) 96 % of control | dose: 60.0 mg/kg/injection, schedule: Q01DX Z (oral), vehicle: methylcellulose (MC) 94 % of control | dose: 120.0 mg/kg/injection, schedule: Q01DX Z (ip), vehicle: methylcellulose (MC) 96 % of control | dose: 120.0 mg/kg/injection, schedule: Q01DX Z (oral), vehicle: methylcellulose (MC) 101 % of control | dose: 240.0 mg/kg/injection, schedule: Q01DX Z (ip), vehicle: methylcellulose (MC) 104 % of control | dose: 480.0 mg/kg/injection, schedule: Q01DX Z (ip), vehicle: methylcellulose (MC) 94 % of control

CC(C)=C1C2CCC1C1C(=O)OC(=O)C21 (stereo not drawn)
inactive: dose: 50.0 mg/kg/injection, schedule: Q01DX009 (ip), vehicle: Klucel (hydroxypropylcellulose) (HPC) 95 % of control | dose: 50.0 mg/kg/injection, schedule: Q04DX003 (ip), vehicle: Klucel (hydroxypropylcellulose) (HPC) 102 % of control | dose: 100.0 mg/kg/injection, schedule: Q01DX001 (ip), vehicle: Klucel (hydroxypropylcellulose) (HPC) 98 % of control | dose: 100.0 mg/kg/injection, schedule: Q01DX009 (ip), vehicle: Klucel (hydroxypropylcellulose) (HPC) 88 % of control | dose: 100.0 mg/kg/injection, schedule: Q04DX003 (ip), vehicle: Klucel (hydroxypropylcellulose) (HPC) 102 % of control | dose: 200.0 mg/kg/injection, schedule: Q01DX001 (ip), vehicle: Klucel (hydroxypropylcellulose) (HPC) 105 % of control | dose: 200.0 mg/kg/injection, schedule: Q04DX003 (ip), vehicle: Klucel (hydroxypropylcellulose) (HPC) 100 % of control

CC1(CCCOc2ccc(NC(=O)CBr)cc2)N=C(N)N=C(N)N1c1ccccc1 (stereo not drawn)
inactive: dose: 5.0 mg/kg/injection, schedule: Q01DX001 (ip), vehicle: saline 97 % of control | dose: 10.0 mg/kg/injection, schedule: Q01DX001 (ip), vehicle: saline 92 % of control | dose: 20.0 mg/kg/injection, schedule: Q01DX001 (ip), vehicle: saline 91 % of control | dose: 40.0 mg/kg/injection, schedule: Q01DX001 (ip), vehicle: saline 91 % of control | dose: 80.0 mg/kg/injection, schedule: Q01DX001 (ip), vehicle: saline 87 % of control

O=C(/C=C/c1ccccc1)OC(C(=O)O)c1ccccc1 (stereo not drawn)
inactive: dose: 75.0 mg/kg/injection, schedule: Q01DX001 (ip), vehicle: saline 105 % of control | dose: 150.0 mg/kg/injection, schedule: Q01DX001 (ip), vehicle: saline 101 % of control | dose: 300.0 mg/kg/injection, schedule: Q01DX001 (ip), vehicle: saline 109 % of control
